In patent US9796711B2, “Substituted pyrazolo[3,4-b]pyridin-6-carboxylic acids and method of use” (AbbVie S.àr.l., priority 2015, dated 2017):

How the values were obtained:
[1] = molecular target: T1, ΔF508-CFTR (Homo sapiens, UniProt P13569, DEL508-508); assay: CFTR cell surface levels using HRP-tagged ΔF508-CFTR expressing CFBE cells, intrinsic corrector capacity; assay type: cell-based; conditions: HRP-tagged ΔF508-CFTR CFBE41o- cells, compounds alone (intrinsic corrector capacity), 20 hours at 33° C.; for % Activation: positive control 3 μM corrector; for EC50: read-out: EC50
T1 construct: host or cells: CFBE41o-, doxycycline-inducible
T1 sequence (P13569 with tags, fused parts or gaps DEL508-508): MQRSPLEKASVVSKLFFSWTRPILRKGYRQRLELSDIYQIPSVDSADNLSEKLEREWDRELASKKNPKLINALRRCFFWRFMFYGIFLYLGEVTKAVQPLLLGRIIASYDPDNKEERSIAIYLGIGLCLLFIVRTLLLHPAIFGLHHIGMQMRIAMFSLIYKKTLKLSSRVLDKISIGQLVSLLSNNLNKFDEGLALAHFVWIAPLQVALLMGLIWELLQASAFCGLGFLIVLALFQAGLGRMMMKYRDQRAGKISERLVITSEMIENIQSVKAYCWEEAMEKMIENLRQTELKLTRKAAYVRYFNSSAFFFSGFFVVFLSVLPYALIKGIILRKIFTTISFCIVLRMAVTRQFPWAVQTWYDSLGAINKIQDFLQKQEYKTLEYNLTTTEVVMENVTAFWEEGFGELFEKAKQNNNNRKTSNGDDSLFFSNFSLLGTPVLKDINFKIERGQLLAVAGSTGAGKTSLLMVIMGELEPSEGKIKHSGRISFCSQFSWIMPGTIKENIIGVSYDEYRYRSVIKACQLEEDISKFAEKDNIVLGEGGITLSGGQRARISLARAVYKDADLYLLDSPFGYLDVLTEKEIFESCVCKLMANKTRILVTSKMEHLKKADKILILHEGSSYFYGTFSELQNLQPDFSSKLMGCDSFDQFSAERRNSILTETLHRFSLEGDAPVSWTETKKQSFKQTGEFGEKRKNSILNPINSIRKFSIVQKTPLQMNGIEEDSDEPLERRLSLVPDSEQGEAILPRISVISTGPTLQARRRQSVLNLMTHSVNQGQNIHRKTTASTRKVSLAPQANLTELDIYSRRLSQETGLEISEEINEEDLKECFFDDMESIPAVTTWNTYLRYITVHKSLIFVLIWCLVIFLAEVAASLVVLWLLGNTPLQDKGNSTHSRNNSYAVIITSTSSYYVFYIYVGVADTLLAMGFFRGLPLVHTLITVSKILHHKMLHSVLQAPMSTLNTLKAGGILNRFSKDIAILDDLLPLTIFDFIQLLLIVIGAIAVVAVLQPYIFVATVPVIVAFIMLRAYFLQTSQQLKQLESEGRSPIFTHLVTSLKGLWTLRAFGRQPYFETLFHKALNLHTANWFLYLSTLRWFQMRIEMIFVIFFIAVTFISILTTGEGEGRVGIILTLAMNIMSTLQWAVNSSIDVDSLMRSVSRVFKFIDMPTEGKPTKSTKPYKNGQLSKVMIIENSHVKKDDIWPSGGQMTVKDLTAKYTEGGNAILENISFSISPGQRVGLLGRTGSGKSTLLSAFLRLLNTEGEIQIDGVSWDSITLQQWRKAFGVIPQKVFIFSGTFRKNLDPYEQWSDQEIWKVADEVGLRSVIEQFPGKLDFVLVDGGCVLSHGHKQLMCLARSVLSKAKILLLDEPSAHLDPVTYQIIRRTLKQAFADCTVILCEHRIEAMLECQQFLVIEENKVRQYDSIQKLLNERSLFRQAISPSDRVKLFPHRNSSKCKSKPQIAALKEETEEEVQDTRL
Method in brief: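 Here the cells express ΔF508-CFTR with horseradish peroxidase inserted in extracellular loop 4, so only rescued channel at the surface gives luminescent signal. Compounds act on their own, 20 h at the reduced temperature of 33 °C; values are percent activity relative to DMSO and a 3 μM corrector.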

[2] = molecular target: T1, ΔF508-CFTR; assay: CFTR cell surface levels using HRP-tagged ΔF508-CFTR expressing CFBE cells, in the presence of a co-corrector; assay type: cell-based; conditions: HRP-tagged ΔF508-CFTR expressing CFBE cells, in the presence of 3 μM co-corrector; for EC50: read-out: EC50
Method in brief: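 Cells were seeded with 0.5 μg/mL doxycycline and held 68 h at 37 °C. Test compounds plus 3 μM co-corrector (final 0.1% DMSO) were then added for 20 h at 33 °C. Washed cells received HRP substrate, and luminescence was normalized between DMSO and 3 μM co-corrector controls.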

Row | Compound | % Activation [1] | EC50 [1] | % Activation [2] | EC50 [2]
1 | COCCN(CCOC)c1ccc(-c2cc(C(=O)O)nc3c2c(C(C)C)nn3C2CCCCC2)cn1 [compound 275, 4-{6-[bis(2-methoxyethyl)amino]pyridin-3-yl}-1-cyclohexyl-3-(propan-2-yl)-1H-pyrazolo[3,4-b]pyridine-6-carboxylic acid] | 173.8% | 923 nM | 371.35% | 736 nM
2 | CC(C)c1nn(C2CCCCC2)c2nc(C(=O)O)cc(-c3ccc(N(C)C4CCOC4)nc3)c12 (centres unmarked) [compound 276, 1-cyclohexyl-4-{6-[methyl(oxolan-3-yl)amino]pyridin-3-yl}-3-(propan-2-yl)-1H-pyrazolo[3,4-b]pyridine-6-carboxylic acid] | 206.93% | 504 nM | 407.8% | 372 nM
3 | CN(c1ncc(-c2cc(C(=O)O)nc3c2c(C2CCC2)nn3-c2cccc(N3CCCC3)c2)cn1)C1CCOCC1 [compound 277, 3-cyclobutyl-4-{2-[methyl(oxan-4-yl)amino]pyrimidin-5-yl}-1-[3-(pyrrolidin-1-yl)phenyl]-1H-pyrazolo[3,4-b]pyridine-6-carboxylic acid] | 356.47% | 513 nM | 608.57% | 515 nM
4 | CC(C)c1nn(-c2ccc(F)c(F)c2)c2nc(C(=O)O)cc(-c3ccc(N(C)C4CCOCC4)cc3)c12 [compound 278, 1-(3,4-difluorophenyl)-4-{4-[methyl(oxan-4-yl)amino]phenyl}-3-(propan-2-yl)-1H-pyrazolo[3,4-b]pyridine-6-carboxylic acid] | 259.1% | 991 nM | 446.55% | 676 nM
5 | CC(C)c1nn(-c2ccc(F)c(F)c2)c2nc(C(=O)O)cc(-c3ccc(N4CCC(C#N)CC4)nc3)c12 [compound 279, 4-[6-(4-cyanopiperidin-1-yl)pyridin-3-yl]-1-(3,4-difluorophenyl)-3-(propan-2-yl)-1H-pyrazolo[3,4-b]pyridine-6-carboxylic acid] | 257.8% | 900 nM | 427.65% | 499 nM
6 | CC(C)c1nn(-c2ccc(F)cc2)c2nc(C(=O)O)cc(-c3cnc(N(C)C4CCOCC4)nc3)c12 [compound 280, 1-(4-fluorophenyl)-4-{2-[methyl(oxan-4-yl)amino]pyrimidin-5-yl}-3-(propan-2-yl)-1H-pyrazolo[3,4-b]pyridine-6-carboxylic acid] | 238.6% | 485 nM | 440.83% | 249 nM
7 | CC(C)c1nn(-c2cccc(C(F)(F)F)c2)c2nc(C(=O)O)cc(-c3cnc(N(C)C4CCOCC4)nc3)c12 [compound 281, 4-{2-[methyl(oxan-4-yl)amino]pyrimidin-5-yl}-3-(propan-2-yl)-1[3-(trifluoromethyl)phenyl]-1H-pyrazolo[3,4-b]pyridine-6-carboxylic acid] | 226.7% | 1290 nM | 425.85% | 908 nM
8 | CC(C)c1nn(-c2cc(F)cc(F)c2)c2nc(C(=O)O)cc(-c3ccc(N4CCC(C#N)CC4)cc3)c12 [compound 282, 4-[4-(4-cyanopiperidin-1-yl)phenyl]-1-(3,5-difluorophenyl)-3-(propan-2-yl)-1H-pyrazolo[3,4-b]pyridine-6-carboxylic acid] | 269.33% | 492 nM | 476.23% | 341 nM
9 | CC(C)c1nn(-c2cccc(F)c2)c2nc(C(=O)O)cc(-c3ccc(N(C)C4CCOCC4)nc3)c12 [compound 283, 1-(3-fluorophenyl)-4-{6-[methyl(oxan-4-yl)amino]pyridin-3-yl}-3-(propan-2-yl)-1H-pyrazolo[3,4-b]pyridine-6-carboxylic acid] | 233.17% | 649 nM | 435.2% | 367 nM
10 | CC(C)c1nn(-c2cccc(F)c2)c2nc(C(=O)O)cc(-c3ccc(N(C)C4CCOCC4)cc3)c12 [compound 284, 1-(3-fluorophenyl)-4-{4-[nethyl(oxan-4-yl)amino]phenyl}-3-(propan-2-yl)-1H-pyrazolo[3,4-b]pyridine-6-carboxylic acid] | 240.8% | 501 nM | 435.23% | 282 nM
11 | CC(C)c1nn(-c2cccc(F)c2)c2nc(C(=O)O)cc(-c3ccc(N4CCC(C#N)CC4)nc3)c12 [compound 285, 4-[6-(4-cyanopiperidin-1-yl)pyridin-3-yl]-1-(3-fluorophenyl)-3-(propan-2-yl)-1H-pyrazolo[3,4-b]pyridine-6-carboxylic acid] | 255.73% | 655 nM | 428% | 261 nM
12 | CC(C)c1nn(-c2cccc(F)c2)c2nc(C(=O)O)cc(-c3ccc(N4CCC(C#N)CC4)cc3)c12 [compound 286, 4-[4-(4-cyanopiperidin-1-yl)phenyl]-1-(3-fluorophenyl)-3-(propan-2-yl)-1H-pyrazolo[3,4-b]pyridine-6-carboxylic acid] | 259.83% | 544 nM | 448.23% | 256 nM
13 | CC(C)c1nn(-c2cccc(C(F)(F)F)c2)c2nc(C(=O)O)cc(-c3ccc(N(C)C4CCOCC4)nc3)c12 [compound 287, 4-{6-[methyl(oxan-4-yl)amino]pyridin-3-yl}-3-(propan-2-yl)-1[3-(trifluoromethyl)phenyl]-1H-pyrazolo[3,4-b]pyridine-6-carboxylic acid] | 234.95% | 535 nM | 464.35% | 429 nM
14 | Cc1nn(-c2ccccc2)c2nc(C(=O)O)cc(N3CCC4(CC3)CN(C)C(=O)CO4)c12 [compound 288, 3-methyl-4-(4-methyl-3-oxo-1-oxa-4,9-diazaspiro[5.5]undecan-9-yl)-1-phenyl-1H-pyrazolo[3,4-b]pyridine-6-carboxylic acid] | 20.49% | 7500 nM | 128% | 7500 nM
15 | COCC1(C)CN(c2cc(C(=O)O)nc3c2c(C)nn3-c2ccccc2)C1 [compound 289, 4-[3-(methoxymethyl)-3-methylazetidin-1-yl]-3-methyl-1-phenyl-1H-pyrazolo[3,4-b]pyridine-6-carboxylic acid] | 46.35% | 2510 nM | 172.8% | 1830 nM
16 | Cc1nn(-c2ccccc2)c2nc(C(=O)O)cc(N3CC4CNCCN4C3=O)c12 (centres unmarked) [compound 290, 3-methyl-4-(3-oxohexahydroimidazo[1,5-a]pyrazin-2(3H)-yl)-1-phenyl-1H-pyrazolo[3,4-b]pyridine-6-carboxylic acid] | 12.145% | 7500 nM | 127.35% | 7500 nM
17 | COCC1CCN(c2cc(C(=O)O)nc3c2c(C)nn3-c2ccccc2)CC1 [compound 291, 4-[4-(methoxymethyl)piperidin-1-yl]-3-methyl-1-phenyl-1H-pyrazolo[3,4-b]pyridine-6-carboxylic acid] | 168.85% | 1710 nM | 349.55% | 1400 nM
18 | CC(=O)NC1CCN(c2cc(C(=O)O)nc3c2c(C)nn3-c2ccccc2)CC1 [compound 292, 4-(4-acetamidopiperidin-1-yl)-3-methyl-1-phenyl-1H-pyrazolo[3,4-b]pyridine-6-carboxylic acid] | 15.095% | 7500 nM | 141.1% | 4170 nM
19 | Cc1nn(-c2ccccc2)c2nc(C(=O)O)cc(N3CC4(CCOCC4)C3)c12 [compound 293, 3-methyl-4-(7-oxa-2-azaspiro[3.5]nonan-2-yl)-1-phenyl-1H-pyrazolo[3,4-b]pyridine-6-carboxylic acid] | 90.275% | 2510 nM | 264.9% | 2510 nM
20 | COCC1CN(c2cc(C(=O)O)nc3c2c(C)nn3-c2ccccc2)C1 [compound 294, 4-[3-(methoxymethyl)azetidin-1-yl]-3-methyl-1-phenyl-1H-pyrazolo[3,4-b]pyridine-6-carboxylic acid] | 73.275% | 2510 nM | 225.5% | 2510 nM
21 | CO[C@@H]1CCN(c2cc(C(=O)O)nc3c2c(C)nn3-c2ccccc2)C1 [compound 295, 4-[(3R)-3-methoxypyrrolidin-1-yl]-3-methyl-1-phenyl-1H-pyrazolo[3,4-b]pyridine-6-carboxylic acid] | 46.475% | 2510 nM | 172.1% | 2510 nM
22 | CO[C@H]1CCN(c2cc(C(=O)O)nc3c2c(C)nn3-c2ccccc2)C1 [compound 296, 4-[(3S)-3-methoxypyrrolidin-1-yl]-3-methyl-1-phenyl-1H-pyrazolo[3,4-b]pyridine-6-carboxylic acid] | 29.42% | 4170 nM | 164% | 2510 nM
23 | Cc1nn(-c2ccccc2)c2nc(C(=O)O)cc(N3CCC(F)CC3)c12 [compound 297, 4-(4-fluoropiperidin-1-yl)-3-methyl-1-phenyl-1H-pyrazolo[3,4-b]pyridine-6-carboxylic acid] | 50.78% | 2230 nM | 184.07% | 3340 nM
